Reference: ChEMBL document CHEMBL4376889, “Discovery of a Brain-Penetrant ATP-Competitive Inhibitor of the Mechanistic Target of Rapamycin (mTOR) for CNS Disorders” (J Med Chem, 2020)
Active and inactive are the calls of the source. No cut-off for these calls is given here.

What was measured:
[1] = target: Serine/threonine-protein kinase mTOR (Rattus norvegicus, UniProt P42346, S2215F); assay: Inhibition of mTOR S2215F mutant in rat primary cortical neuron assessed as reduction in PS6 phosphorylation incubated for 4 hrs by Western blot analysis (reference value: 19 nM)
[2] = Clearance in Sprague-Dawley rat at 1 mg/kg, iv or 3 mg/kg, po by HPLC analysis; assay type: ADME, organism-based; details: in vivo
[3] = Drug uptake in C57BL/6J mouse plasma at 3 mg/kg, po incubated for 3 hrs by LC-MS/MS analysis; assay type: ADME, organism-based
[4] = target: Serine/threonine-protein kinase mTOR (Rattus norvegicus, UniProt P42346); assay: Inhibition of mTOR in rat primary cortical neuron assessed as reduction in PS6 phosphorylation incubated for 4 hrs by Western blot analysis (reference value: 19 nM)
[5] = Stability in rat liver microsomes assessed as intrinsic clearance; assay type: ADME, Microsome; details: read-out: CLH
[6] = Selectivity index, ratio of IC50 for ATR (unknown origin) to IC50 for inhibition of mTOR in mouse MEF cells harboring TSC1 deletion mutant; assay type: cell-based
Cytochrome P450 2C9 = Cytochrome P450 2C9 (Homo sapiens, UniProt P11712); assay: Inhibition of CYP2C9 (unknown origin); assay type: ADME
[7] = AUC (0 to t) in Sprague-Dawley rat at 3 mg/kg, po by HPLC analysis; assay type: ADME, organism-based; details: in vivo
[8] = target: Serine/threonine-protein kinase mTOR (Rattus norvegicus, UniProt P42346, E2419K); assay: Inhibition of mTOR E2419K mutant in rat primary cortical neuron assessed as reduction in PS6 phosphorylation incubated for 4 hrs by Western blot analysis (reference value: 19 nM)
[9] = Drug uptake in C57BL/6J mouse brain at 3 mg/kg, po incubated for 3 hrs by LC-MS/MS analysis; assay type: ADME, organism-based; details: read-out: Drug uptake
[10] = AUC (0 to t) in Sprague-Dawley rat at 1 mg/kg, iv by HPLC analysis; assay type: ADME, organism-based; details: in vivo
[11] = AUC (0 to t) in C57BL/6 mouse at 1 mg/kg, iv by HPLC analysis; assay type: ADME, organism-based; details: in vivo
[12] = MRT (0 to t) in Sprague-Dawley rat at 1 mg/kg, iv or 3 mg/kg, po by HPLC analysis; assay type: ADME, organism-based; details: in vivo
Mus musculus [13] = assay: In vivo inhibition of mTOR pathway in C57BL/6J mouse assessed as reduction in mTORC1/mTORC2 complex by measuring AKT phosphorylation level at 1 to 10 mg/kg, po measured after 8 hrs by Western blot analysis; assay type: functional, organism-based
Cytochrome P450 2D6 = Cytochrome P450 2D6 (Homo sapiens, UniProt P10635); assay: Inhibition of CYP2D6 (unknown origin); assay type: ADME
[14] = Tmax in Sprague-Dawley rat at 1 mg/kg, iv or 3 mg/kg, po by HPLC analysis; assay type: ADME, organism-based; details: in vivo
[15] = Ratio of drug concentration in brain to plasma in C57BL/6J mouse at 1 mg/kg, po incubated for 3 hrs by LC-MS/MS analysis; assay type: ADME, organism-based; details: read-out: BPR
[16] = Ratio of drug concentration in brain to plasma in C57BL/6 mouse at 1 mg/kg, iv incubated for 0.5 hrs by LC-MS/MS analysis; assay type: ADME, organism-based; details: read-out: BPR
[17] = Protein binding in Sprague-Dawley rat plasma at 5 uM incubated for 4 hrs by LC-MS/MS analysis; assay type: ADME, cell-free; details: read-out: PPB (converted)
Mus musculus [18] = assay: In vivo inhibition of PI3KCA in C57BL/6J mouse assessed as reduction in AKT phosphorylation Thr308 at 1 to 10 mg/kg, po measured after 24 hrs by Western blot analysis; assay type: functional, organism-based
[19] = Ratio of drug concentration in brain to plasma in Sprague-Dawley rat at 3 mg/kg, po incubated for 1 hr by LC-MS/MS analysis; assay type: ADME, organism-based; details: read-out: BPR
[20] = Selectivity index, ratio of IC50 for DNAPK (unknown origin) to IC50 for inhibition of mTOR in mouse MEF cells harboring TSC1 deletion mutant; assay type: cell-based
[21] = Protein binding in C57BL/6 mouse plasma at 5 uM incubated for 4 hrs by LC-MS/MS analysis; assay type: ADME, cell-free; details: read-out: PPB
[22] = Drug uptake in C57BL/6J mouse plasma at 1 mg/kg, po incubated for 3 hrs by LC-MS/MS analysis; assay type: ADME, organism-based
[23] = target: Phosphatidylinositol 4,5-bisphosphate 3-kinase catalytic subunit alpha isoform (Homo sapiens, UniProt P42336); assay: Inhibition of PI3Kalpha (unknown origin)
[24] = Ratio of drug concentration in brain to plasma in C57BL/6 mouse at 1 mg/kg, iv incubated for 2 hrs by LC-MS/MS analysis; assay type: ADME, organism-based; details: read-out: BPR
[25] = Selectivity index, ratio of IC50 for ATM (unknown origin) to IC50 for inhibition of mTOR in mouse MEF cells harboring TSC1 deletion mutant; assay type: cell-based
[26] = Ratio of drug concentration in brain to plasma in C57BL/6 mouse at 1 mg/kg, iv incubated for 7 hrs by LC-MS/MS analysis; assay type: ADME, organism-based; details: read-out: BPR
[27] = target: 3',5'-cyclic-AMP phosphodiesterase 4D (Homo sapiens, UniProt Q08499); assay: Inhibition of PDE4D (unknown origin)
[28] = target: Serine/threonine-protein kinase mTOR (Rattus norvegicus, UniProt P42346, L1460P); assay: Inhibition of mTOR L1460P mutant in rat primary cortical neuron assessed as reduction in PS6 phosphorylation incubated for 4 hrs by Western blot analysis (reference value: 19 nM)
[29] = MRT (0 to t) in C57BL/6 mouse at 1 mg/kg, iv or 5 mg/kg, po by HPLC analysis; assay type: ADME, organism-based; details: in vivo
[30] = Drug uptake in C57BL/6J mouse plasma at 10 mg/kg, po incubated for 3 hrs by LC-MS/MS analysis; assay type: ADME, organism-based
[31] = target: Serine/threonine-protein kinase mTOR (Mus musculus) (UniProt Q9JLN9); assay: Inhibition of mTOR in mouse primary cortical neuron harboring TSC1 deletion mutant assessed as reduction in PS6 phosphorylation incubated for 4 hrs by Western blot analysis
[32] = Clearance in C57BL/6 mouse at 1 mg/kg, iv or 5 mg/kg, po by HPLC analysis; assay type: ADME, organism-based; details: in vivo
[33] = AUC (0 to t) in C57BL/6 mouse at 5 mg/kg, po by HPLC analysis; assay type: ADME, organism-based; details: in vivo
[34] = target: Phosphatidylinositol 4,5-bisphosphate 3-kinase catalytic subunit delta isoform (Homo sapiens, UniProt O00329); assay: Inhibition of PI3Kdelta (unknown origin)
Mus musculus [35] = assay: Protection against C57BL/6J mouse model of neuronal mTOR hyperactivity assessed as survival rate at 10 mg/kg, ip administered on postnatal day 22 daily and measured on postnatal day 52 (reference value: 48 %); assay type: functional
[36] = Half life in Sprague-Dawley rat at 1 mg/kg, iv or 3 mg/kg, po by HPLC analysis; assay type: ADME, organism-based; details: in vivo
Mus musculus [37] = assay: In vivo inhibition of mTOR pathway in C57BL/6J mouse assessed as reduction in mTORC1/mTORC2 complex by measuring AKT phosphorylation level at 1 to 10 mg/kg, po measured after 24 hrs by Western blot analysis; assay type: functional, organism-based

Cytochrome P450 2C9, sequence (P11712 whole entry): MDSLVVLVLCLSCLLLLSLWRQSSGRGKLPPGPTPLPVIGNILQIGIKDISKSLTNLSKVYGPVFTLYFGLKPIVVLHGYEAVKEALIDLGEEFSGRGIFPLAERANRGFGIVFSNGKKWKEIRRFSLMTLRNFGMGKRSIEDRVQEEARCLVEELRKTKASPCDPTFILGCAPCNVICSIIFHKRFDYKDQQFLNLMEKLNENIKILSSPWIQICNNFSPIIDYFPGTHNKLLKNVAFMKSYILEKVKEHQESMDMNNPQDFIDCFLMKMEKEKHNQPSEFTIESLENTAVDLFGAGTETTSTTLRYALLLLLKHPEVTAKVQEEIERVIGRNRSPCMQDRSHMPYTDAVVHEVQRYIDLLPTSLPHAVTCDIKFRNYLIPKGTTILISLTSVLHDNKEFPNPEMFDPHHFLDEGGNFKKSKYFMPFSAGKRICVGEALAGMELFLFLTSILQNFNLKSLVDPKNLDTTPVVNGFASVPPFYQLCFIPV
Phosphatidylinositol 4,5-bisphosphate 3-kinase catalytic subunit alpha isoform, sequence (P42336 whole entry, canonical isoform): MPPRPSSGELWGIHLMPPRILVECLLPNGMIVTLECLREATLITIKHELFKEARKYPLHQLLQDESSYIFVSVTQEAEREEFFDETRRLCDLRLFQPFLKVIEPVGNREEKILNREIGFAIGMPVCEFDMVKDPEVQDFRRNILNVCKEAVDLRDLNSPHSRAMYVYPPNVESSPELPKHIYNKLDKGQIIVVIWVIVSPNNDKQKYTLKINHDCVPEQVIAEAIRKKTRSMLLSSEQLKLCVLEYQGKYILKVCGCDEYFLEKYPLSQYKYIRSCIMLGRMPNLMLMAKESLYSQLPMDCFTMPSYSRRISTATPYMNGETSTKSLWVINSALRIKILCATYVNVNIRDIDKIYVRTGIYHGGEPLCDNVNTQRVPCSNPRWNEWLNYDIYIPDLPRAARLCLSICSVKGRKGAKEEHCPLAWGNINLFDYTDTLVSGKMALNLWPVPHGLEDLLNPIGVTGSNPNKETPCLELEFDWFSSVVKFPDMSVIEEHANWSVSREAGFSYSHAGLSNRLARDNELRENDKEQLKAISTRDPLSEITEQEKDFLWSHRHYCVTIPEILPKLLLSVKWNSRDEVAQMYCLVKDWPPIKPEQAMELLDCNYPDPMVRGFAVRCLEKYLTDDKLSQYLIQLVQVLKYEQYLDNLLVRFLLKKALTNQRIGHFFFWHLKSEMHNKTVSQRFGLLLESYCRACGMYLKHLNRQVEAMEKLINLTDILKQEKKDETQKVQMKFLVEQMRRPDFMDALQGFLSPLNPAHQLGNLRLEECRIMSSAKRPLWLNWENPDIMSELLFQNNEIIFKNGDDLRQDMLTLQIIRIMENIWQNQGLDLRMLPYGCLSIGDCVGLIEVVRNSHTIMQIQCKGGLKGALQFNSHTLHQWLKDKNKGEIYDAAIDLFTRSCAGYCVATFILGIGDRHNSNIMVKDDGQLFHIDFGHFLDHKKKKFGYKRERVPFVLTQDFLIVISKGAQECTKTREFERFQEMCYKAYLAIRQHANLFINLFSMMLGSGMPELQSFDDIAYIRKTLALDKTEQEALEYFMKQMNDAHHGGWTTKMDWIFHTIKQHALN
3',5'-cyclic-AMP phosphodiesterase 4D, sequence (Q08499 whole entry): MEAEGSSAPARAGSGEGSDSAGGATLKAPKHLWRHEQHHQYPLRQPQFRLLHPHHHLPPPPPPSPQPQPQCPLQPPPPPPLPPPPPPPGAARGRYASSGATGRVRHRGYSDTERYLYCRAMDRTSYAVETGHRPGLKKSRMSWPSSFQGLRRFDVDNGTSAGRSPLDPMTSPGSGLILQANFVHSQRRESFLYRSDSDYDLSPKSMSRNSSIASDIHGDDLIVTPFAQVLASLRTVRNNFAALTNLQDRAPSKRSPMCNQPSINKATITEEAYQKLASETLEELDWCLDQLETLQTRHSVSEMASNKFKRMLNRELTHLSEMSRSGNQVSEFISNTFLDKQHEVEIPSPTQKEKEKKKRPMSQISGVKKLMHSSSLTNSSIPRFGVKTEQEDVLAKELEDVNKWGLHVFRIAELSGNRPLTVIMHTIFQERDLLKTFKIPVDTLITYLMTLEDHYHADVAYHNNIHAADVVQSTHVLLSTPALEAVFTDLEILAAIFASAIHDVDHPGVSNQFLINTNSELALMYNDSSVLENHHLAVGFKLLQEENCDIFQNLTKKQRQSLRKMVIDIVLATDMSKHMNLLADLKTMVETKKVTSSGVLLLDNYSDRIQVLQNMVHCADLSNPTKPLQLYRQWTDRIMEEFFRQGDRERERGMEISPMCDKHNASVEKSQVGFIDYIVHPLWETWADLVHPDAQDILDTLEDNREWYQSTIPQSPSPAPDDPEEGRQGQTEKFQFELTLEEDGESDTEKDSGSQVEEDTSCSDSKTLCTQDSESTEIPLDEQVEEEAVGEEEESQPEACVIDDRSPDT
Phosphatidylinositol 4,5-bisphosphate 3-kinase catalytic subunit delta isoform, sequence (O00329 whole entry, canonical isoform): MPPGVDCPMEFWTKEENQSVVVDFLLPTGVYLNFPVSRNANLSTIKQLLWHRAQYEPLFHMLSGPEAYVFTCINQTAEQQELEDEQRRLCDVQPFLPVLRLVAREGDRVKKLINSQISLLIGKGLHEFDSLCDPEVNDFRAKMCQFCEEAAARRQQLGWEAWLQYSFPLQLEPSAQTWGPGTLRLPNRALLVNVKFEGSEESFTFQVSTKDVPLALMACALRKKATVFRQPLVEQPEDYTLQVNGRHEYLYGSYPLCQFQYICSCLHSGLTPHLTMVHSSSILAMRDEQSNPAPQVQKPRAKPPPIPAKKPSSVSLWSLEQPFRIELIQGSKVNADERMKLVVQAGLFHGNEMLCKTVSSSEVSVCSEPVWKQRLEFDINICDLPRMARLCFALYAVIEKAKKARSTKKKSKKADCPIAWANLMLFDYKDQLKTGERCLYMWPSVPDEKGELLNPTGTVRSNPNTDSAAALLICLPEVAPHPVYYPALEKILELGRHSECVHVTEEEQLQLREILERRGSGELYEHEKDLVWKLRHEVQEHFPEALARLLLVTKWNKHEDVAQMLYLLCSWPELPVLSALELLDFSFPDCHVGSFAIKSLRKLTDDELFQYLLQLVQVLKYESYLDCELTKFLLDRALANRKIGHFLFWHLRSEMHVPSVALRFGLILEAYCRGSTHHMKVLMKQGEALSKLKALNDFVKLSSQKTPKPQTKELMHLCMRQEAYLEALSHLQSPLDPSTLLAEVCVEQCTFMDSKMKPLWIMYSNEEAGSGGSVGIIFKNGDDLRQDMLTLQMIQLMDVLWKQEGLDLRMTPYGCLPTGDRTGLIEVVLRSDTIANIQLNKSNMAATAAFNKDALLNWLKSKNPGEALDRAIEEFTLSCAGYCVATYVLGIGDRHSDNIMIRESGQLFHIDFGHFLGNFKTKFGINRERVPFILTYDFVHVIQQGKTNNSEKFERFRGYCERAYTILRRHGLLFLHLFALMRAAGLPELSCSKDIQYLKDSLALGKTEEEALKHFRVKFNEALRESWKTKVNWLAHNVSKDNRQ
Cytochrome P450 2D6, sequence (P10635 whole entry): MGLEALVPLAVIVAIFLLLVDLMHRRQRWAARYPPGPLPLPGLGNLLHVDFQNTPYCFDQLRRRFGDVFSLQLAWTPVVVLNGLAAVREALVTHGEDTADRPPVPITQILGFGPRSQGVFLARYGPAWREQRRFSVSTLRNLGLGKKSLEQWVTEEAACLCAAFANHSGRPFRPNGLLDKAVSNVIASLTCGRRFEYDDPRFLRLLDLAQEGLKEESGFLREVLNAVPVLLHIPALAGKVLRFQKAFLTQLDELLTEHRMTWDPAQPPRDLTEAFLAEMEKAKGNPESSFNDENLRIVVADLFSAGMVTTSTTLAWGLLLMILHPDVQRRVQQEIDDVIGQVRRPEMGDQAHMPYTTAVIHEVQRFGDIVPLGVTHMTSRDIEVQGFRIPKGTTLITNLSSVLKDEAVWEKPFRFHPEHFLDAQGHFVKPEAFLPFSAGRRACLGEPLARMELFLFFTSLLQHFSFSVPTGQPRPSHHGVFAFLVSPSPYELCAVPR

## C[C@@H]1COCCN1c1nc(N2CCOC[C@@H]2C)nc2sc(-c3cc[nH]n3)nc12
[1]
  IC50: 17 nM
[2]
  clearance: 9.5 mL/min/kg
[3]
  concentration at 3 h: 2210 nM
[4]
  IC50: 17 nM
[5]
  microsomal CLint: 42 µL/min/mg
[6]
  Ratio IC50: 70
Cytochrome P450 2C9
  IC50: > 50000 nM
[7]
  AUC(0-t): 10.5 µM·h
[8]
  IC50: 22 nM
[9]
  concentration at 3 h: 2390 nM
[10]
  AUC(0-t): 4.34 µM·h
[11]
  AUC(0-t): 4.41 µM·h
[12]
  MRT last: 4.3 h
Mus musculus [13]
  inhibition: Active
Cytochrome P450 2D6
  IC50: > 50000 nM
[14]
  Tmax: 1.5 h
[15]
  Kp at 3 h: 1.1
[16]
  Kp at 0.5 h: 1
[17]
  fraction unbound at 4 h, 5 µM: 0.012
Mus musculus [18]
  inhibition: inactive
[19]
  Kp at 1 h: 4
[20]
  Ratio IC50: 230
[21]
  fraction unbound at 4 h, 5 µM: < 0.01
[22]
  concentration at 3 h: 826 nM
[23]
  IC50: 2200 nM
[24]
  Kp at 2 h: 1.2
[25]
  Ratio IC50: 3570
[26]
  Kp at 7 h: 1.2
[27]
  IC50: 210 nM
[28]
  IC50: 11 nM
[29]
  MRT last: 2.6 h
[30]
  concentration at 3 h: 4470 nM
[31]
  inhibition: Dose-dependent effect
[32]
  clearance: 6.5 mL/min/kg
[33]
  AUC(0-t): 14.9 µM·h
[34]
  IC50: 1700 nM
Mus musculus [35]
  Activity: 84%
[36]
  half-life: 3.7 h
Mus musculus [37]
  inhibition: inactive
